Results from PubChem BioAssay (NCI).
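Interpolation was linear, between the two tested concentrations surrounding the appropriate level; five concentrations were tested over 48 hours in 96-well plates. At the TGI there is no net growth.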

How the values were obtained:
Experiment in all cases: DTP human tumour cell line panel, 48 h
786-0 renal = test system: 786-0 renal
A498 renal = test system: A498 renal
A549 NSCLC = test system: A549 NSCLC
ACHN renal = test system: ACHN renal
BT-549 breast = test system: BT-549 breast
CAKI-1 renal = test system: CAKI-1 renal
CCRF-CEM leukemia = test system: CCRF-CEM leukemia
COLO 205 colon = test system: COLO 205 colon
DU-145 prostate = test system: DU-145 prostate
HCC-2998 colon = test system: HCC-2998 colon
HCT-116 colon = test system: HCT-116 colon
HCT-15 colon = test system: HCT-15 colon
HOP-62 NSCLC = test system: HOP-62 NSCLC
HS 578T breast = test system: HS 578T breast
HT29 colon = test system: HT29 colon
IGROV1 ovarian = test system: IGROV1 ovarian
K-562 leukemia = test system: K-562 leukemia
KM12 colon = test system: KM12 colon
LOX IMVI melanoma = test system: LOX IMVI melanoma
M14 melanoma = test system: M14 melanoma
MALME-3M melanoma = test system: MALME-3M melanoma
MDA-MB-231 breast = test system: MDA-MB-231 breast
MDA-MB-435 = test system: MDA-MB-435
MDA-N = test system: MDA-N
MOLT-4 leukemia = test system: MOLT-4 leukemia
NCI-H226 lung = test system: NCI-H226 lung
NCI-H23 lung = test system: NCI-H23 lung
NCI-H460 lung = test system: NCI-H460 lung
NCI-H522 lung = test system: NCI-H522 lung
NCI/ADR-RES ovarian = test system: NCI/ADR-RES ovarian
OVCAR-3 ovarian = test system: OVCAR-3 ovarian
OVCAR-4 ovarian = test system: OVCAR-4 ovarian
OVCAR-5 ovarian = test system: OVCAR-5 ovarian
OVCAR-8 ovarian = test system: OVCAR-8 ovarian
PC-3 prostate = test system: PC-3 prostate
RPMI-8226 leukemia = test system: RPMI-8226 leukemia
RXF 393 renal = test system: RXF 393 renal
SF-268 CNS = test system: SF-268 CNS
SF-295 CNS = test system: SF-295 CNS
SK-MEL-2 melanoma = test system: SK-MEL-2 melanoma
SK-MEL-28 melanoma = test system: SK-MEL-28 melanoma
SK-MEL-5 melanoma = test system: SK-MEL-5 melanoma
SK-OV-3 ovarian = test system: SK-OV-3 ovarian
SN12C renal = test system: SN12C renal
SNB-19 CNS = test system: SNB-19 CNS
SNB-75 CNS = test system: SNB-75 CNS
SW-620 colon = test system: SW-620 colon
T-47D breast = test system: T-47D breast
TK-10 renal = test system: TK-10 renal
U251 CNS = test system: U251 CNS
UACC-257 melanoma = test system: UACC-257 melanoma
UACC-62 melanoma = test system: UACC-62 melanoma
UO-31 renal = test system: UO-31 renal
EKVX NSCLC = test system: EKVX NSCLC
HOP-92 NSCLC = test system: HOP-92 NSCLC
MCF7 breast = test system: MCF7 breast
SF-539 CNS = test system: SF-539 CNS
SR leukemia = test system: SR leukemia

`CCOC(=O)c1[nH]c2nc(SC)nc(NC)c2c1N` was tested, and the TGI (786-0 renal) was > 100 µM, the TGI (A498 renal) was > 100 µM and the TGI (A549 NSCLC) was > 100 µM. For the same compound, the TGI (ACHN renal) was > 100 µM, the TGI (BT-549 breast) was > 100 µM and the TGI (CAKI-1 renal) was > 100 µM. The TGI (CCRF-CEM leukemia) was > 100 µM, the TGI (COLO 205 colon) was > 100 µM and the TGI (DU-145 prostate) was > 100 µM. The TGI (HCC-2998 colon) was > 100 µM, the TGI (HCT-116 colon) was > 100 µM and the TGI (HCT-15 colon) was > 100 µM. The TGI (HOP-62 NSCLC) was > 100 µM, the TGI (HS 578T breast) was > 100 µM and the TGI (HT29 colon) was > 100 µM. For the same compound, the TGI (IGROV1 ovarian) was > 100 µM, the TGI (K-562 leukemia) was > 100 µM and the TGI (KM12 colon) was > 100 µM. The TGI (LOX IMVI melanoma) was > 100 µM, the TGI (M14 melanoma) was > 100 µM and the TGI (MALME-3M melanoma) was > 100 µM. For the same compound, the TGI (MDA-MB-231 breast) was > 100 µM, the TGI (MDA-MB-435) was > 100 µM and the TGI (MDA-N) was > 100 µM. The TGI (MOLT-4 leukemia) was > 100 µM, the TGI (NCI-H226 lung) was > 100 µM and the TGI (NCI-H23 lung) was > 100 µM. For the same compound, the TGI (NCI-H460 lung) was > 100 µM, the TGI (NCI-H522 lung) was > 100 µM and the TGI (NCI/ADR-RES ovarian) was > 100 µM. For the same compound, the TGI (OVCAR-3 ovarian) was > 100 µM, the TGI (OVCAR-4 ovarian) was > 100 µM and the TGI (OVCAR-5 ovarian) was > 100 µM. The TGI (OVCAR-8 ovarian) was > 100 µM, the TGI (PC-3 prostate) was > 100 µM and the TGI (RPMI-8226 leukemia) was > 100 µM. For the same compound, the TGI (RXF 393 renal) was > 100 µM, the TGI (SF-268 CNS) was > 100 µM and the TGI (SF-295 CNS) was > 100 µM. For the same compound, the TGI (SK-MEL-2 melanoma) was > 100 µM, the TGI (SK-MEL-28 melanoma) was > 100 µM and the TGI (SK-MEL-5 melanoma) was > 100 µM. The TGI (SK-OV-3 ovarian) was > 100 µM, the TGI (SN12C renal) was > 100 µM and the TGI (SNB-19 CNS) was > 100 µM. The TGI (SNB-75 CNS) was > 100 µM, the TGI (SW-620 colon) was > 100 µM and the TGI (T-47D breast) was > 100 µM. The TGI (TK-10 renal) was > 100 µM, the TGI (U251 CNS) was > 100 µM and the TGI (UACC-257 melanoma) was > 100 µM. The TGI (UACC-62 melanoma) was > 100 µM and the TGI (UO-31 renal) was > 100 µM.

For `CC1=CCC[C@H]2[C@](C)(CC3=CC(=O)C4SCCSC4C3=O)[C@@H](C)CC[C@]12C` (some centres undefined), the TGI (786-0 renal) was 35 µM, the TGI (A498 renal) was 31.2 µM and the TGI (A549 NSCLC) was 38.3 µM. The TGI (ACHN renal) was 46.1 µM, the TGI (BT-549 breast) was 39.7 µM and the TGI (CAKI-1 renal) was 99.2 µM. It also gave a TGI (CCRF-CEM leukemia) of 48.7 µM, a TGI (COLO 205 colon) of 35.9 µM and a TGI (DU-145 prostate) of 66.9 µM. It also gave a TGI (EKVX NSCLC) of 54.4 µM, a TGI (HCC-2998 colon) of 55.8 µM and a TGI (HCT-116 colon) of 31 µM. It also gave a TGI (HCT-15 colon) of 67.1 µM, a TGI (HOP-62 NSCLC) of 31.1 µM and a TGI (HOP-92 NSCLC) of 70.4 µM. The TGI (IGROV1 ovarian) was 84.6 µM, the TGI (K-562 leukemia) was 96.2 µM and the TGI (KM12 colon) was > 100 µM. It also gave a TGI (LOX IMVI melanoma) of 24.3 µM, a TGI (M14 melanoma) of 29.8 µM and a TGI (MCF7 breast) of 63.8 µM. The TGI (MDA-MB-231 breast) was 46.7 µM, the TGI (MDA-MB-435) was 58.7 µM and the TGI (MDA-N) was 25.9 µM. The TGI (MOLT-4 leukemia) was 80.7 µM, the TGI (NCI-H226 lung) was 30.3 µM and the TGI (NCI-H23 lung) was 31.9 µM. For the same compound, the TGI (NCI-H460 lung) was 65 µM, the TGI (NCI/ADR-RES ovarian) was 47.2 µM and the TGI (OVCAR-3 ovarian) was 48.4 µM. For the same compound, the TGI (OVCAR-4 ovarian) was > 100 µM, the TGI (OVCAR-5 ovarian) was 37.5 µM and the TGI (OVCAR-8 ovarian) was 39.6 µM. The TGI (PC-3 prostate) was 49.4 µM, the TGI (RPMI-8226 leukemia) was 41.8 µM and the TGI (RXF 393 renal) was 44.8 µM. For the same compound, the TGI (SF-295 CNS) was 32.8 µM, the TGI (SF-539 CNS) was 40.3 µM and the TGI (SK-MEL-2 melanoma) was 23.2 µM. It also gave a TGI (SK-MEL-28 melanoma) of 38.4 µM, a TGI (SK-MEL-5 melanoma) of 26.7 µM and a TGI (SN12C renal) of 28.8 µM. It also gave a TGI (SNB-19 CNS) of 37.1 µM, a TGI (SNB-75 CNS) of 80.8 µM and a TGI (SR leukemia) of 53.6 µM. The TGI (SW-620 colon) was 65.6 µM, the TGI (T-47D breast) was > 100 µM and the TGI (U251 CNS) was 34.5 µM. For the same compound, the TGI (UACC-257 melanoma) was 64 µM, the TGI (UACC-62 melanoma) was 39.9 µM and the TGI (UO-31 renal) was 40.1 µM.
